Laboratory results from patent US10919903B2, “Nitrogen-containing heterocyclic compounds as FXR modulators” (Hepagene Therapeutics (HK) Limited, priority 2016, dated 2021).

How the values were obtained:
[1] = target: T1, FXR-LBD (Homo sapiens, UniProt Q96RI1); test: FXR Coactivator Assay (LanthaScreen TR-FRET); assay type: biochemical
T1 construct: Add 5 μl of 4×FXR-LBD to 384 well assay plates; purchased
T1 sequence (Q96RI1 262-486 limits assumed): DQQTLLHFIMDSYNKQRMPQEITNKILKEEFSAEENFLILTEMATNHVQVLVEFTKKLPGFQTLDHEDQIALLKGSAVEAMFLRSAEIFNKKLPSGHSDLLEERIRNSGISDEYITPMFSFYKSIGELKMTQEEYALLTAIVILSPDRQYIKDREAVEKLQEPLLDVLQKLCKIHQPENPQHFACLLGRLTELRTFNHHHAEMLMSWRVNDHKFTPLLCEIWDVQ
Description: (§1) • 1. Hek293T cells were plated at 1.1*10^6/ml into a 100 mm dish. • 2. […] Cells were incubated at 37° C. under 5% CO2 atmosphere. • 3. All of compounds were 3-fold serial diluted from 10 mM stock for 10 doses in DMSO. • 4. Transfer compound dilutions into 384 well assay plates using liquid workstation. • 5. Seed 25 ul HEK293T cells into 384 well assay plate (prepared step 4) at 0.6*10^5/ml. Cells were incubated at 37° C. under 5% CO2 atmosphere overnight. • 6. Add 25 ul steady-Glo™ Luciferase Assay Reagent into each well of 384-well assay plate. • 7. […] Calculate EC50 by fitting % Activity values and log of compound concentrations to nonlinear regression (dose response−variable slope) with Graphpad 5.0. FXR Coactivator Assay Reagents: LanthaScreen™ TR-FRET Farnesoid X Receptor Coactivator Assay GW4064 as a positive control Process: • 1. All of compounds were 3-fold serial diluted from 10 mM stock for 10 doses in DMSO. • 2. Dilute each 100× agonist serial dilution to 2× using Complete Coregulator buffer G. • 3. Transfer 10 μl of each of the 2× agonist serial dilutions to 384 well assay plates. • 4. Add 5 μl of 4×FXR-LBD to 384 well assay plates. • 5. […] Incubate at room temperature protected from light. • 7. […] Calculate EC50 by fitting % Activity values and log of compound concentrations to nonlinear regression (dose response−variable slope) with Graphpad 5.0.

[2] = target: T2, FXR (Homo sapiens, UniProt Q96RI1); test: FXR Transactivation Assay (GAL4 luciferase reporter, pBIND-FXR in HEK293T); assay type: cell-based; conditions: HEK293T cells
T2 construct: expressed in transfected cells; host or cells: HEK293T
T2 sequence (Q96RI1 1-486): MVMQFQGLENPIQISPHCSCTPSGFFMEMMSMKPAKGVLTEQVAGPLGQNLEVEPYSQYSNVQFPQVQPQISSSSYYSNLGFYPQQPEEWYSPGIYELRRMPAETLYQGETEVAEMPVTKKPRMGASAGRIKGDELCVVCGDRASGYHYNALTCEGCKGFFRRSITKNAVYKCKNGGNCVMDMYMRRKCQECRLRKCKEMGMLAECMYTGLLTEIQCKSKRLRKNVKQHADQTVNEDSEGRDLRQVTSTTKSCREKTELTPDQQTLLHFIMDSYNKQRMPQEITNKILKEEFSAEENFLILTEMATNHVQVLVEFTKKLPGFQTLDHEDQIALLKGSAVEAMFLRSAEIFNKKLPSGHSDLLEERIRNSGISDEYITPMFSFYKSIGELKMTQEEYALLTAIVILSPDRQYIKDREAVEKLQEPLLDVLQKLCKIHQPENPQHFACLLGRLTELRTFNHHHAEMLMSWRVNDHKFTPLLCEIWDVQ
Description: FXR Transactivation Assay
pGL4.35 [luc2P/9XGAL4 UAS/Hygro]
Steady-Glo™ Luciferase Assay System
GW4064 as a positive control
as §1

EC50 [1]	EC50 [2]	Compound
101 to 400 nM	–	COc1cc(C(=O)O)cc2sc(C3CCN(Cc4c(-c5c(Cl)cccc5Cl)noc4C(C)C)CC3)nc12 [II-47, 2-(1-((3-(2,6-Dichlorophenyl)-5-isopropylisoxazol-4-yl)methyl)piperidin-4-yl)-4-methoxybenzo[d]thiazole-6-carboxylic acid]
–	10 to 100 nM	COc1cc(C(=O)O)cc2sc(N3CCN(Cc4c(C(C)C)cnn4-c4c(Cl)cccc4Cl)CC3C)nc12 (centres unmarked) [II-15]
10 to 100 nM	101 to 400 nM	COc1cc(C(=O)O)cc2sc(N3CCN(Cc4c(-c5c(Cl)cccc5Cl)noc4C4CC4)CC3C)nc12 (centres unmarked) [II-11]
–	10 to 100 nM	COc1cc(C(=O)O)cc2sc(N3CCC(Cc4c(-c5c(Cl)cccc5Cl)noc4C(C)C)C[C@H]3C)nc12 (stereo partly drawn) [II-45, 2-((2R)-4-((3-(2,6-Dichlorophenyl)-5-isopropylisoxazol-4-yl)methyl)-2-methylpiperidin-1-yl)-4-methoxybenzo[d]thiazole-6-carboxylic acid]
–	101 to 400 nM	CCC1CN(c2nc3c(OC)cc(C(=O)O)cc3s2)CCN1Cc1c(-c2c(Cl)cccc2Cl)noc1C1CC1 (centres unmarked) [II-21]
10 to 100 nM	101 to 400 nM	COc1cc(C(=O)O)cc2sc(N3CCCN(Cc4c(-c5c(Cl)cccc5Cl)noc4C(C)C)CC3)nc12 [II-40]
–	101 to 400 nM	COc1cc(C(N)=O)cc2sc(N3CCN(Cc4c(-c5c(Cl)cncc5Cl)noc4C4CC4)C[C@H]3C)nc12 [VIII-03, 2-[(2R)-4-[[5-Cyclopropyl-3-(3,5-dichloropyridin-4-yl)-1,2-oxazol-4-yl]methyl]-2-methylpiperazin-1-yl]-4-methoxy-1,3-benzothiazole-6-carboxamide]
–	401 to 5000 nM	2-(4-[[3-(2,6-Dichlorophenyl)-5-(propan-2-yl)-1,2-oxazol-4-yl]methyl]piperazin-1-yl)-1-benzofuran-5-carboxylic acid [Compound X-01]
10 to 100 nM	101 to 400 nM	COc1cc(C(=O)O)cc2sc(N3CCN(Cc4c(C(C)C)cnn4-c4c(Cl)cccc4Cl)CC3)nc12 [II-03, 2-(4-[[1-(2,6-Dichlorophenyl)-4-(propan-2-yl)-1H-pyrazol-5-yl]methyl]piperazin-1-yl)-4-methoxy-1,3-benzothiazole-6-carboxylic acid]
10 to 100 nM	101 to 400 nM	CCC1CN(c2nc3c(OC)cc(C(=O)O)cc3s2)CCN1Cc1c(-c2c(Cl)cccc2Cl)noc1C(C)C (centres unmarked) [II-20]
–	401 to 5000 nM	COc1cc(C(=O)O)cc2sc(N3CCN(Cc4c(-c5c(Cl)cccc5Cl)noc4C4CC4)C(C)(C)C3)nc12 [II-23]
–	401 to 5000 nM	COc1cc(C(=O)O)cc2sc(N3CCN(Cc4c(-c5c(Cl)cccc5Cl)noc4C(C)C)C(C(C)C)C3)nc12 (racemic) [II-29]
10 to 100 nM	101 to 400 nM	COc1cc(C(=O)O)cc2sc(N3CCN(Cc4c(-c5c(Cl)cccc5Cl)noc4C(C)C)CC3(C)C)nc12 [II-16]
10 to 100 nM	10 to 100 nM	COc1cc(C(=O)O)cc2sc(N3CCN(Cc4c(-c5c(Cl)cccc5Cl)noc4C(C)C)C(C)C3)nc12 (centres unmarked) [II-24]
–	101 to 400 nM	COc1cc(C(=O)O)cc2sc(N3CCN(Cc4c(-c5c(Cl)cccc5Cl)noc4C(C)C)C4CCCCC43)nc12 (racemic) [II-39]
10 to 100 nM	101 to 400 nM	COc1cc(C(=O)O)cc2sc(N3CCN(Cc4c(-c5c(Cl)cccc5Cl)noc4C(C)C)C4(CC4)C3)nc12 [II-30]
10 to 100 nM	10 to 100 nM	COc1cc(C(=O)O)cc2sc(N3CCN(Cc4c(-c5c(Cl)cccc5Cl)noc4C4CC4)CC3C)nc12 (centres unmarked) [II-13]
10 to 100 nM	101 to 400 nM	COc1cc(C(=O)O)cc2sc(N3CCN(Cc4c(-c5c(Cl)cccc5Cl)noc4C(C)C)C(C)(C)C3)nc12 [II-22, 2-(4-[[3-(2,6-Dichlorophenyl)-5-(propan-2-yl)-1,2-oxazol-4-yl]methyl]-3,3-dimethylpiperazin-1-yl)-4-methoxy-1,3-benzothiazole-6-carboxylic acid]
–	10 to 100 nM	COc1cc(C(=O)O)cc2sc(N3C4CCC3CN(Cc3c(-c5c(Cl)cccc5Cl)noc3C3CC3)C4)nc12 [II-36]
–	10 to 100 nM	C[C@@H]1CN(Cc2c(-c3c(Cl)cccc3Cl)noc2C2CC2)CCN1c1nc2c(OC(F)(F)F)cc(C(=O)O)cc2s1 [VII-04, 2-[(2R)-4-[[5-Cyclopropyl-3-(2,6-dichlorophenyl)-1,2-oxazol-4-yl]methyl]-2-methylpiperazin-1-yl]-4-(trifluoromethoxy)-1,3-benzothiazole-6-carboxylic acid]
–	101 to 400 nM	COc1cc(C(=O)O)cc2sc(N3CCN(Cc4c(-c5c(Cl)cccc5Cl)noc4C4CC4)C(C)C3)nc12 (centres unmarked) [II-25]
–	401 to 5000 nM	COc1cc(C#N)cc2sc(N3CCN(Cc4c(-c5c(Cl)cccc5Cl)noc4C(C)C)CC3)nc12 [IX-01, 2-(4-((3-(2,6-Dichlorophenyl)-5-isopropylisoxazol-4-yl)methyl)piperazin-1-yl)-4-methoxybenzo[d]thiazole-6-carbonitrile]
–	401 to 5000 nM	COc1cc(C(=O)O)cc2sc(N3CCN(Cc4c(-c5c(Cl)cccc5Cl)noc4C(C)C)CC34CC4)nc12 [II-17]
10 to 100 nM	10 to 100 nM	CC(C)c1cc(C(=O)O)cc2sc(N3CCN(Cc4c(-c5c(Cl)cccc5Cl)noc4C4CC4)C[C@H]3C)nc12 [VII-01, (R)-2-(4-((5-Cyclopropyl-3-(2,6-dichlorophenyl)isoxazol-4-yl)methyl)-2-methylpiperazin-1-yl)-4-isopropylbenzo[d]thiazole-6-carboxylic acid]
–	401 to 5000 nM	COc1cc(C(=O)O)cc2sc(N3CCN(Cc4c(C(C)C)cnn4-c4c(Cl)cccc4Cl)CC3C)nc12 (centres unmarked) [II-14]
–	401 to 5000 nM	COc1cc(C(N)=O)cc2nc(N3CCN(Cc4c(-c5c(Cl)cccc5Cl)noc4C4CC4)C[C@@H]3C)sc12 [VIII-04, (S)-2-(4-((5-Cyclopropyl-3-(2,6-dichlorophenyl)isoxazol-4-yl)methyl)-2-methylpiperazin-1-yl)-7-methoxybenzo[d]thiazole-5-carboxamide]
–	401 to 5000 nM	COc1cc(-c2nnn[nH]2)cc2sc(N3CCN(Cc4c(-c5c(Cl)cccc5Cl)noc4C(C)C)CC3)nc12 [IX-02, 3-(2,6-Dichlorophenyl)-5-isopropyl-4-((4-(4-methoxy-6-(1H-tetrazol-5-yl)benzo[d]thiazol-2-yl)piperazin-1-yl)methyl)isoxazole]
10 to 100 nM	–	COc1cc(C(=O)O)cc2sc(N3CC=C(Cc4c(-c5c(Cl)cccc5Cl)noc4C4CC4)C[C@H]3C)nc12 [II-46, 2-[(2R)-4-[[5-Cyclopropyl-3-(2,6-dichlorophenyl)-1,2-oxazol-4-yl]methyl]-2-methyl-1,2,3,6-tetrahydropyridin-1-yl]-4-methoxy-1,3-benzothiazole-6-carboxylic acid]
–	401 to 5000 nM	COc1cc(C(=O)O)cc2sc(N3CCN(Cc4c(-c5c(Cl)cccc5Cl)noc4C(C)C)CC3CO)nc12 (centres unmarked) [II-07, 2-(4-[[3-(2,6-Dichlorophenyl)-5-(propan-2-yl)-1,2-oxazol-4-yl]methyl]-2-(hydroxymethyl)piperazin-1-yl)-4-methoxy-1,3-benzothiazole-6-carboxylic acid]

Compound	EC50 [1]	EC50 [2]
COc1cc(C(=O)O)cc2sc(N3CCC(Cc4c(-c5c(Cl)cncc5Cl)noc4C4CC4)CC3)nc12 [II-49]	–	401 to 5000 nM
Cc1cc(C(=O)O)cc2sc(N3CCC(Cc4c(C(C)C)cnn4-c4c(Cl)cccc4Cl)CC3)nc12 [IV-10]	–	101 to 400 nM
CC(C)c1onc(-c2c(Cl)cccc2Cl)c1CC1CCN(c2nc3ccc(C(=O)O)cc3s2)CC1 [III-08]	–	401 to 5000 nM
COc1cc(C(=O)O)cc2sc(N3CCC(Cc4c(-c5ccccc5OC(F)(F)F)noc4C4CC4)CC3)nc12 [II-50]	–	10 to 100 nM
COc1cc(C(=O)O)cc2sc(N3CCC(Cc4c(C(C)C)cnn4-c4c(Cl)cccc4Cl)CC3)nc12 [II-44]	–	401 to 5000 nM
COc1cc(C(=O)O)cc2sc(N3CCC(Cc4c(-c5c(Cl)cccc5Cl)noc4C(C)C)CC3)nc12 [II-43]	10 to 100 nM	101 to 400 nM
CC(C)c1onc(-c2c(Cl)cccc2Cl)c1CC1CCN(c2nc3c(F)cc(C(=O)O)cc3s2)CC1 [VI-11]	–	401 to 5000 nM
